The source made the active and inactive calls. The calls are words filed in the database; no cut-off is given here.
Key:
[1] = biological target: Receptor-type tyrosine-protein kinase FLT3 (Homo sapiens, UniProt P36888, ITD)
[2] = biological target: Cyclin-dependent kinase 1/cyclin B1 (Homo sapiens, UniProt P06493); assay: Inhibition of CDK1/cyclin B1 (unknown origin) in presence of [32P]gammaATP by image analyser; assay type: protein-complex assay
[3] = biological target: Cyclin-dependent kinase 4/cyclin D1 (Homo sapiens, UniProt P11802); assay: Inhibition of CDK4/cyclin D1 (unknown origin) in presence of [32P]gammaATP by image analyser; assay type: protein-complex assay
MOLM-14 = assay: Antiproliferative activity against human MOLM-14 cells assessed as cell death measured after 72 hrs by resazurin dye based assay; assay type: functional; details: MOLM-14, 72 h
CCRF-CEM = assay: Antiproliferative activity against human CCRF-CEM cells assessed as cell death measured after 72 hrs by resazurin dye based assay; assay type: functional
THP-1 = assay: Antiproliferative activity against human THP-1 cells assessed as cell death measured after 72 hrs by resazurin dye based assay; assay type: functional; details: THP-1, 72 h
U-937 = assay: Antiproliferative activity against human U-937 cells assessed as cell death measured after 72 hrs by resazurin dye based assay; assay type: functional; details: U-937, 72 h
BaF3 = assay: Antiproliferative activity against mouse BaF3 cells harboring FLt3 ITD mutant assessed as cell death measured after 72 hrs by resazurin dye based assay; assay type: functional; details: BaF3, 72 h
[4] = tested on: Receptor-type tyrosine-protein kinase FLT3 (Homo sapiens), P36888 [D835Y]; assay: Inhibition of FLT3 D835Y (unknown origin) assessed as residual activity at 500 nM
[5] = biological target: Dual specificity tyrosine-phosphorylation-regulated kinase 1B (Homo sapiens) (UniProt Q9Y463); assay: Inhibition of DYRK1B (unknown origin) assessed as residual activity at 500 nM
[6] = biological target: NT-3 growth factor receptor (Homo sapiens) (UniProt Q16288); assay: Inhibition of TRKC (unknown origin) assessed as residual activity at 500 nM
[7] = biological target: Receptor-type tyrosine-protein kinase FLT3 (Homo sapiens) (UniProt P36888); assay: Inhibition of FLT3 autophosphorylation in human MV4-11 cells at 20 to 100 nM incubated for 1 hrs by Western blot analysis; assay type: cell-based; details: dose 20-100 nM
MV4-11 = assay: Induction of apoptosis in human MV4-11 cells assessed as effect on Bcl2 level at 100 nM incubated for 24 hrs by Western blot analysis; assay type: functional, cell-based
K562 = assay: cells; details: Homo sapiens, K562, 72 h
Description: Antiproliferative activity against human K562 cells assessed as cell death measured after 72 hrs by resazurin dye based assay

Cyclin-dependent kinase 1/cyclin B1, sequence (P06493 whole entry): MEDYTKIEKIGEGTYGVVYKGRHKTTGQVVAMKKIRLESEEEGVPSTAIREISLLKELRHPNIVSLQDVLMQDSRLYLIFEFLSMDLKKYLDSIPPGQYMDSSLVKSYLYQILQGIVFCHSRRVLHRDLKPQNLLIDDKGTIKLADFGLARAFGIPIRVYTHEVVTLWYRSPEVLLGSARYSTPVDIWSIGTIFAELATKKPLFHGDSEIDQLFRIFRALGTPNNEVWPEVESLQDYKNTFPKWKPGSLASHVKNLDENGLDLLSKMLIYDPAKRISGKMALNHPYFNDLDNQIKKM
Cyclin-dependent kinase 1/cyclin B1, sequence (P14635 whole entry, further chain): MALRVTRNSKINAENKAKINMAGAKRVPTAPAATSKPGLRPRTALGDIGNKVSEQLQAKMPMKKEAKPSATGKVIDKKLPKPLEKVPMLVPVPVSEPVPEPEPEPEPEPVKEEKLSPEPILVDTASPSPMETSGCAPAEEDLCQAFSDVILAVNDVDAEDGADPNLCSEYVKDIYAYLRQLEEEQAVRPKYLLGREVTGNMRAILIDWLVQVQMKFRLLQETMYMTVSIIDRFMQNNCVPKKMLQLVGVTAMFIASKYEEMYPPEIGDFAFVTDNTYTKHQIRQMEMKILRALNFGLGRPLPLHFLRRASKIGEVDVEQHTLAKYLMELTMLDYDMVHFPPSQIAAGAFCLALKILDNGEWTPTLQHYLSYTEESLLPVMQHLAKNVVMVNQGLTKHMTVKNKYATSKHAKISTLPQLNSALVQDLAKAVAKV
Dual specificity tyrosine-phosphorylation-regulated kinase 1B (Homo sapiens), sequence (Q9Y463 whole entry, looked up): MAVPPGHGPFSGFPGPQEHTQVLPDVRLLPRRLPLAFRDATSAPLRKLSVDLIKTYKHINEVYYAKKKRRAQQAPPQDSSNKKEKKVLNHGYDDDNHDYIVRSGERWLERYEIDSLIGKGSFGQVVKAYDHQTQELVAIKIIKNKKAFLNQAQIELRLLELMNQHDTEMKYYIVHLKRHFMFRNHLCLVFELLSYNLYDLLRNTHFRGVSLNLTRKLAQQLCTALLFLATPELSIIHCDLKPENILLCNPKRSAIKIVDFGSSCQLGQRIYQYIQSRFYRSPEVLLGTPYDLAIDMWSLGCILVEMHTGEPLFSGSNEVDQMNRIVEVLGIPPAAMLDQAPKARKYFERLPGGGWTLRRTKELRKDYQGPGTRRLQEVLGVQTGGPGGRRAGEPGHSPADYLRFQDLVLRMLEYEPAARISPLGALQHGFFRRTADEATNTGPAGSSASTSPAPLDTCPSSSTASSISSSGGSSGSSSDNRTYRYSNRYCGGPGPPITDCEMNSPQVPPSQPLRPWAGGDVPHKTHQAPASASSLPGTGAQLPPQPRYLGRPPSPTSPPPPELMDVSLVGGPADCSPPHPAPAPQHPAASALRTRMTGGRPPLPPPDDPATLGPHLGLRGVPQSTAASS
Cyclin-dependent kinase 4/cyclin D1, sequence (P11802 whole entry): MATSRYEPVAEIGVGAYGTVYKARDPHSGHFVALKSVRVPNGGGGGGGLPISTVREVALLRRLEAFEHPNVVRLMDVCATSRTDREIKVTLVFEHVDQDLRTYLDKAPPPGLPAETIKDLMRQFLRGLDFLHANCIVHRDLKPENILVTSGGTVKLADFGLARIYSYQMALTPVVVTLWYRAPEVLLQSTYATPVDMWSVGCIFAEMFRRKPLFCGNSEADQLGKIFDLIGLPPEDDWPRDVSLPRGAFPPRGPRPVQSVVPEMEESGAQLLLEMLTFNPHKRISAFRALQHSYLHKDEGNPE
Cyclin-dependent kinase 4/cyclin D1, sequence (P24385 whole entry, further chain): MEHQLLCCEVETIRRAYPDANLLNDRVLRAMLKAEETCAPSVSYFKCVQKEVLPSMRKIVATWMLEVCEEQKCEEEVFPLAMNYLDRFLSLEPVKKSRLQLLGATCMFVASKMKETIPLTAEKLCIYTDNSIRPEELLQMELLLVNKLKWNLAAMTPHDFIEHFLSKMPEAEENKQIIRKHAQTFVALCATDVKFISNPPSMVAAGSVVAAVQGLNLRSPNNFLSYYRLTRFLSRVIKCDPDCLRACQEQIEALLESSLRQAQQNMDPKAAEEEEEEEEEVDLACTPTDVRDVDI
NT-3 growth factor receptor (Homo sapiens), sequence (Q16288 32-839 limits assumed): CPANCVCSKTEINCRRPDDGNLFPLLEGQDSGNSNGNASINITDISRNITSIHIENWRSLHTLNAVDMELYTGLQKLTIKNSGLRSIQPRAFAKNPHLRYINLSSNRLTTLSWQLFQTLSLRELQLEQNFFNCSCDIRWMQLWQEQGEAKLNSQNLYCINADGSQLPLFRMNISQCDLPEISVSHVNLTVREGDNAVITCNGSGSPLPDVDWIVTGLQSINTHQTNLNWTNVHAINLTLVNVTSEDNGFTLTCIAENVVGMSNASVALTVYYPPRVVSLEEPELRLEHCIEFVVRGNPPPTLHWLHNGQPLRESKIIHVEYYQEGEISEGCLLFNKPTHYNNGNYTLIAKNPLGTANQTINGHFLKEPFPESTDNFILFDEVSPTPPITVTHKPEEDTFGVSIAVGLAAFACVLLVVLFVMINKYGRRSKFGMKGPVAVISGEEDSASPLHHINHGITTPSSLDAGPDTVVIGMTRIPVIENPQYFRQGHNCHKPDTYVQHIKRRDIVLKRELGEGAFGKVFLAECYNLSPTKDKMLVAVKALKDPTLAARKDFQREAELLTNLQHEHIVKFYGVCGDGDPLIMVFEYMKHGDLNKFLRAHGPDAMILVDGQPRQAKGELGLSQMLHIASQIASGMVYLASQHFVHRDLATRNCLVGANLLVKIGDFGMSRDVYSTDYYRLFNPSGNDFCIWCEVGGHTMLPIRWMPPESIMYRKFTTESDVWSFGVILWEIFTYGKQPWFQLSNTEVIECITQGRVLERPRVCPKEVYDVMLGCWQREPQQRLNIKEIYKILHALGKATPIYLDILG

For `Cc1n[nH]c2ccc3nc(-c4c[nH]nc4C(F)(F)F)c4c(c3c12)CCCC4`, the IC50 [1] was 6 nM, the IC50 [2] was 157 nM and the IC50 [3] was greater than 1000 nM. The IC50 (MOLM-14) was 26 nM, the IC50 (CCRF-CEM) was 6.51 µM and the IC50 (THP-1) was 6.8 µM. For the same compound, the IC50 (U-937) was 2880 nM, the IC50 (BaF3) was 62 nM and the Activity [4] was less than 2.5%. For the same compound, the Activity [5] was 4%, the Activity [6] was 4% and the inhibition [7] was “Active”. For the same compound, the Activity (MV4-11) was “Active” and the IC50 (K562) was 9.82 µM.
